Test results from patent US20190069544A1, “COMPOSITION COMPRISING A MEL, A FATTY ACID METHYL ESTER AND A NON-IONIC […] A HLB VALUE GREATER THAN OR EQUAL TO 12” (OLEON NV, priority 2016, published 2019).

How the values were obtained:
[1] = tested on: chenopodium plants (Chenopodium album); experiment: Herbicide effectiveness: destruction of the vegetation, naked eye, 14 days after treatment; format: in vivo
Protocol: (§1) Composition 2 according to the invention prepared in Example 1 was used in combination with an herbicide active ingredient (glyphosate) in the treatment of chenopodium plants (Chenopodium album). The chenopodium plants used were at a 2 to 3 leaves stage (BBCH 12-13), and were grown in a phytotron at a temperature of 15° C. during the night and 20° C. during the day, with a photoperiod of 14 hours. The glyphosate used was non-formulated (technical ingredient, reference 4521, Sigma-Aldrich®). […]
Evaluation of the effectiveness was also carried out by observation of the plants with the naked eye 14 days after treatment. The effectiveness is evaluated in percentage of destruction of the vegetation, taking into account the size of the plants and the symptoms of phytotoxicity such as deformation of the leaves, the appearance of white patches and necrosis.

[2] = tested on: chenopodium plants (Chenopodium album); experiment: Cell activity of plant roots by fluorescent markers after treatment; format: in vivo; conditions: 24 to 48 h after treatment, 500 g/ha, 2% ammonium sulphate (FIG. 10)
Protocol: as §1
The evaluation of the effectiveness was carried out by measuring the cell activity of the roots of the plants 24 to 48 h after treatment. The cell activity is measured by staining the cells using fluorescent markers making it possible to distinguish: • the cells having a metabolic activity (living cells), which emit a green fluorescence; • the structures which emit a blue fluorescence; and • the dead cells, which emit a red fluorescence.
When the cell metabolic activity reduces, the green fluorescence reduces.

**Q.** Which “Phytotoxicity, in words” value ([1]; 14 days after treatment (FIGS. 11, 12)) does the source give for `O=C(O)CNCP(=O)(O)O` [glyphosate] here?
**A.** not observed

**Q.** And the “Effectiveness (average), percentage of destruction of the vegetation” value ([1]; 14 days after treatment, dose 500 g/ha, 2% ammonium sulphate, average of 4 pots of 4 plants)?
**A.** 0%

**Q.** What about the “Reduction in the intensity of the fluorescence in the cells of the roots (cell metabolic activity)” value [2] of the same molecule?
**A.** not observed
